Measurements published in ChEMBL document CHEMBL3046459, “Structural insights for 3H-1, -2, -4 triazolinones as angiotensin II receptor antagonists using QSAR techniques” (Med Chem Res, 2010).

Tests used:
[1] = biological target: T1, Type-1 angiotensin II receptor (Oryctolagus cuniculus) (UniProt P34976); assay: (§1) Antagonist activity at angiotensin 2 type-1 receptor in Oryctolagus cuniculus (rabbit) aorta in presence of bovine serum albumin; set-up: unit not given here
T1 sequence (whole entry): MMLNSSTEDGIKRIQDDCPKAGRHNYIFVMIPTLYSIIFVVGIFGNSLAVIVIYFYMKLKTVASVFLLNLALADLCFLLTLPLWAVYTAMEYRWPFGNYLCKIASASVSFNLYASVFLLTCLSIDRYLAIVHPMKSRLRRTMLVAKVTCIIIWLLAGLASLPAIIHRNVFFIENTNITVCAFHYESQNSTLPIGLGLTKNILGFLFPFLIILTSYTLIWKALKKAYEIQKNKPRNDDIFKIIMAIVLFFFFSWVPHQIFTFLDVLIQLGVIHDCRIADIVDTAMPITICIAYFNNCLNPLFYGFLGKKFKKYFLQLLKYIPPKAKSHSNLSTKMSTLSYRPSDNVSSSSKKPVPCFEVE

[2] = biological target: T2, Type-1 angiotensin II receptor (Oryctolagus cuniculus, UniProt P34976); assay: as §1
T2 sequence (P34976 whole entry): T1 sequence (whole entry)

logIC50 [1] | IC50 [2] [nM] | SMILES
-0.0315 | – | CCCCCc1nn(-c2ccccc2[N+](=O)[O-])c(=O)n1Cc1ccc(-c2ccccc2-c2nn[nH]n2)cc1
1.9 | – | CCCCc1nn(-c2ccc([N+](=O)[O-])cc2)c(=O)n1Cc1ccc(-c2ccccc2-c2nn[nH]n2)cc1
0.699 | – | CCCCc1nn(-c2ccc(OC)cc2)c(=O)n1Cc1ccc(-c2ccccc2-c2nn[nH]n2)cc1
2 | – | CCCCc1nn(-c2ccccc2N)c(=O)n1Cc1ccc(-c2ccccc2-c2nn[nH]n2)cc1
0.38 | – | CCCCc1nn(-c2ccccc2Cl)c(=O)n1Cc1ccc(-c2ccccc2-c2nn[nH]n2)cc1
0.505 | – | CCCCc1nn(-c2ccccc2N(C)C)c(=O)n1Cc1ccc(-c2ccccc2-c2nn[nH]n2)cc1
1.9 | – | CCCCc1nn(-c2ccccn2)c(=O)n1Cc1ccc(-c2ccccc2-c2nn[nH]n2)cc1
1.18 | – | CCCCc1nn(-c2cccc(OC)c2)c(=O)n1Cc1ccc(-c2ccccc2-c2nn[nH]n2)cc1
1.5 | 6 | CCCCc1nn(Cc2c(F)c(F)c(F)c(F)c2F)c(=O)n1Cc1ccc(-c2ccccc2-c2nn[nH]n2)cc1
1.84 | – | CCCCc1nn(-c2ccc(Cl)cc2)c(=O)n1Cc1ccc(-c2ccccc2-c2nn[nH]n2)cc1
1.43 | – | CCCCc1nn(-c2ccc(CC)cc2)c(=O)n1Cc1ccc(-c2ccccc2-c2nn[nH]n2)cc1
1.63 | – | CCCCc1nn(-c2cccc([N+](=O)[O-])c2)c(=O)n1Cc1ccc(-c2ccccc2-c2nn[nH]n2)cc1
0.0792 | – | CCCCc1nn(-c2ccccc2C(F)(F)F)c(=O)n1Cc1ccc(-c2ccccc2-c2nn[nH]n2)cc1
0.146 | – | CCCCc1nn(-c2ccccc2C(C)C)c(=O)n1Cc1ccc(-c2ccccc2-c2nn[nH]n2)cc1
1.23 | – | CCCCc1nn(-c2c(F)c(F)c(F)c(F)c2F)c(=O)n1Cc1ccc(-c2ccccc2-c2nn[nH]n2)cc1
1.52 | – | CCCCc1nn(-c2ccc(C(=O)OC)cc2)c(=O)n1Cc1ccc(-c2ccccc2-c2nn[nH]n2)cc1
0.462 | – | CCCCc1nn(CCCC)c(=O)n1Cc1ccc(-c2ccccc2-c2nn[nH]n2)cc1
0.505 | – | CCCCc1nn(CC(C)C)c(=O)n1Cc1ccc(-c2ccccc2-c2nn[nH]n2)cc1
2.08 | – | CCCCc1nn(-c2cccc(Cl)c2)c(=O)n1Cc1ccc(-c2ccccc2-c2nn[nH]n2)cc1
0.756 | – | CCCCCc1nn(-c2ccccc2Cl)c(=O)n1Cc1ccc(-c2ccccc2-c2nn[nH]n2)cc1
1.78 | – | CCCCc1nnc(O)n1Cc1ccc(-c2ccccc2-c2nn[nH]n2)cc1
2.04 | – | CCCCc1nn(Cc2cccc(C(=O)OC)c2)c(=O)n1Cc1ccc(-c2ccccc2-c2nn[nH]n2)cc1
1.25 | – | CCCCc1nn(-c2cccc(C)c2)c(=O)n1Cc1ccc(-c2ccccc2-c2nn[nH]n2)cc1
0.663 | – | CCCCc1nn(Cc2ccccc2)c(=O)n1Cc1ccc(-c2ccccc2-c2nn[nH]n2)cc1
1.04 | – | CCCCc1nn(-c2ccccc2Cc2ccccc2)c(=O)n1Cc1ccc(-c2ccccc2-c2nn[nH]n2)cc1
0.914 | – | CCCCc1nn(CCC)c(=O)n1Cc1ccc(-c2ccccc2-c2nn[nH]n2)cc1
0.763 | – | CCCCc1nn(-c2c(Cl)cccc2Cl)c(=O)n1Cc1ccc(-c2ccccc2-c2nn[nH]n2)cc1

logIC50 [1] | IC50 [2] [nM] | SMILES
0.978 | – | CCCc1nn(-c2ccccc2[N+](=O)[O-])c(=O)n1Cc1ccc(-c2ccccc2-c2nn[nH]n2)cc1
1.83 | – | CCCCc1nn(C(C(=O)O)c2ccccc2)c(=O)n1Cc1ccc(-c2ccccc2-c2nn[nH]n2)cc1 (centres undefined)
1.23 | – | CCCCc1nn(CC(=O)OC)c(=O)n1Cc1ccc(-c2ccccc2-c2nn[nH]n2)cc1
0.301 | – | CCCCc1nn(-c2ccccc2Br)c(=O)n1Cc1ccc(-c2ccccc2-c2nn[nH]n2)cc1
2.69 | – | CCCCc1nn(Cc2ccccc2C(=O)O)c(=O)n1Cc1ccc(-c2ccccc2-c2nn[nH]n2)cc1
1.2 | – | CCCCc1nn(-c2ccc(C)cc2)c(=O)n1Cc1ccc(-c2ccccc2-c2nn[nH]n2)cc1
1.08 | – | CCCCc1nn(C(C(=O)OC)c2ccccc2)c(=O)n1Cc1ccc(-c2ccccc2-c2nn[nH]n2)cc1 (centres undefined)
0.255 | – | CCCCc1nn(C(C)CC)c(=O)n1Cc1ccc(-c2ccccc2-c2nn[nH]n2)cc1 (centres undefined)
0.69 | – | CCCCc1nn(C(C)c2ccccc2)c(=O)n1Cc1ccc(-c2ccccc2-c2nn[nH]n2)cc1 (centres undefined)
1.32 | – | CCCCc1nn(-c2ccc(F)cc2)c(=O)n1Cc1ccc(-c2ccccc2-c2nn[nH]n2)cc1
1.36 | – | CCCCc1nn(Cc2ccc(C(=O)OC)cc2)c(=O)n1Cc1ccc(-c2ccccc2-c2nn[nH]n2)cc1
1 | – | CCCCc1nn(CC)c(=O)n1Cc1ccc(-c2ccccc2-c2nn[nH]n2)cc1
-0.131 | – | CCCCc1nn(-c2ccc(OC)cc2[N+](=O)[O-])c(=O)n1Cc1ccc(-c2ccccc2-c2nn[nH]n2)cc1
1.04 | – | CCCCc1nn(Cc2ccccc2C)c(=O)n1Cc1ccc(-c2ccccc2-c2nn[nH]n2)cc1
0.613 | – | CCCCc1nn(-c2ccccc2C)c(=O)n1Cc1ccc(-c2ccccc2-c2nn[nH]n2)cc1
0.556 | – | CCCCc1nn(-c2ccccc2-c2ccccc2)c(=O)n1Cc1ccc(-c2ccccc2-c2nn[nH]n2)cc1
0.886 | – | CCCCc1nn(C(C)C)c(=O)n1Cc1ccc(-c2ccccc2-c2nn[nH]n2)cc1
0.886 | – | CCCCc1nn(-c2ccccc2F)c(=O)n1Cc1ccc(-c2ccccc2-c2nn[nH]n2)cc1
1.15 | – | CCCc1nn(-c2ccccc2Cl)c(=O)n1Cc1ccc(-c2ccccc2-c2nn[nH]n2)cc1
1.04 | – | CCCCc1nn(Cc2ccccc2C(=O)OC)c(=O)n1Cc1ccc(-c2ccccc2-c2nn[nH]n2)cc1
0.82 | – | CCCCc1nn(-c2ccccc2OC)c(=O)n1Cc1ccc(-c2ccccc2-c2nn[nH]n2)cc1
2.06 | – | CCCCc1nn(-c2ccccc2C(=O)O)c(=O)n1Cc1ccc(-c2ccccc2-c2nn[nH]n2)cc1
1.84 | – | CCCCc1nn(C)c(=O)n1Cc1ccc(-c2ccccc2-c2nn[nH]n2)cc1
0.748 | – | CCCCc1nn(-c2ccccc2C(=O)OC)c(=O)n1Cc1ccc(-c2ccccc2-c2nn[nH]n2)cc1
1.08 | – | CCCCc1nn(Cc2cccc(C)c2)c(=O)n1Cc1ccc(-c2ccccc2-c2nn[nH]n2)cc1
0.462 | – | CCCCc1nn(CC2CCCCC2)c(=O)n1Cc1ccc(-c2ccccc2-c2nn[nH]n2)cc1
